In paper PMC6544338, “Comparative biophysical characterization: A screening tool for acetylcholinesterase inhibitors” (PLoS ONE, 2019):
Read-outs that look alike come from different tables or passages of the source.

Assays:
immobilized AChE [1] = biological target: T1, immobilized AChE (Electrophorus electricus, UniProt O42275); assay: biochemical; type: binding; settings: for Kd / Ka1 / Kd1: 25°C
T1 construct: purchased Sigma (St. Louis, MO, USA)
Procedure: (§1) The protocol was followed with some modifications for enzyme immobilization, scouting and screening. SPR interactions were performed using a Biacore X100 optical biosensor (GE Healthcare Life Sciences, Bangalore, India) at 25°C. SPR analysis was carried out in PBS (200 mM, pH 7.7) from the analyte stock solutions, working solutions were diluted before passing on to the sensor surface. Data collection was done with the help of Biacore control software ver 2.0.2 Sets of experiments were carried out by monitoring change in the refractive index as a function of time under constant flow conditions. The relative amount of inhibitor bound to the AChE was determined by measuring the net increase in the refractive index over time compared to buffer as a control. During each run, there is an inline subtraction of the reference surface. Change is reported regarding response units (RU). The surface was washed with 5 cycles of running buffer (PBS) before next analytes.
(§2) As per pH scouting studies, AChE enzyme (100μg) was dissolved in 100 mM sodium acetate buffer pH 4.5 and was immobilized to the CM5 sensor chip by using the amine coupling method. The flow rate was kept constant during immobilization at 10 μlmin^-1, the surface of flow cell was activated by 1:1 mixture of 100 mM EDC and 100 mM NHS (both dissolved in water) for 7 min. AChE was injected for 7 min, and residual activated carboxymethyl groups were blocked on the sensor surface by 7 min injection of 1M ethanolamine, pH 8.5. In this particular study, flow cell 1 was blank immobilized (without protein) and used as a reference. Inline and double referencing was done for the buffer RU compensation.
(§3) Here the model describes this competitive situation and returns two sets of rate constants, one for each reaction taking into consideration two different analytes. The same buffer was used as running buffer. The constant flow rate was maintained throughout the kinetics (45 μlmin^-1), contact time and dissociation time was kept at 120 second (s). 10 mM glycine pH 3.0 for the time period of 30 s was used for regeneration. The experiments were carried at different concentrations of inhibitors.
(§4) The analysis of data was carried out with X100 evaluation software ver 2.0.2 and fitted to two state fit for individual molecules and for competitive experiments a heterogeneous analyte binding model.

[2] = biological target: T2, acetylcholinesterase from Electrophorus electricus (Electric eel) (Electrophorus electricus, UniProt O42275); assay: Inhibition assay for acetylcholinesterase activity (modified Ellman, ATCI/DTNB, 412 nm); type: biochemical
T2 construct: purchased Sigma (St. Louis, MO, USA)
T2 sequence (O42275 24-633): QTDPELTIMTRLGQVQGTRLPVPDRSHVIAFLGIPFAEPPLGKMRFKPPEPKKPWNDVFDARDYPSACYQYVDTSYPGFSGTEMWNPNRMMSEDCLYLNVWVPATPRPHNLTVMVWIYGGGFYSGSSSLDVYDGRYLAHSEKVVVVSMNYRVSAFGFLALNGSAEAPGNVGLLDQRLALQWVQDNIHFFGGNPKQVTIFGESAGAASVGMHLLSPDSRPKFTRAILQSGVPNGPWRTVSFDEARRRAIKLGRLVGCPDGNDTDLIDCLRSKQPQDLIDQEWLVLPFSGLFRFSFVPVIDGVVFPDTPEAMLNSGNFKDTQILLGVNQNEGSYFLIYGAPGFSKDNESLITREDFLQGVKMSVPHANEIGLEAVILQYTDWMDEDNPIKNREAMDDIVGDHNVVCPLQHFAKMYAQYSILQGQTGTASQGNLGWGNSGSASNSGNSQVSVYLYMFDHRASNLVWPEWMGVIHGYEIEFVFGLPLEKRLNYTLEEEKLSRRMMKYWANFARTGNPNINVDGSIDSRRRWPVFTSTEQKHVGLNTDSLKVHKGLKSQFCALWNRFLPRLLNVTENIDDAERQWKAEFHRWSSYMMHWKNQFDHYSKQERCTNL
Procedure: The assay was performed with some modifications of Ellman et al (1961). […] The hydrolysis was monitored by the formation of yellow color (5-thio-2-nitrobenzoate anion) and the absorbance was measured at 412 nm by using spectrophotometer (UV-1800, Shimadzu, Japan).
The inhibitory activity assay was carried out with slight modifications. […] The inhibitory percentage of AChE was calculated as follows:
%inhibition = 100[A − B] − [C − D]/[A − B]
A is the OD without test substance, B is the OD without test substance and AChE, C is the OD with the test substance, D is the OD at 412 nm with the test substance and without AChE.
The relative percentage inhibition were estimated in triplicates and values were expressed as mean ± SEM (n = 3).

AChE [3] = biological target: T3, AChE (Electrophorus electricus, UniProt O42275); assay: Far-UV circular dichroism of AChE with small molecules (secondary structure composition); settings: single molecule; for Turns of AChE in presence of the molecule: AChE alone 0; for α helix of AChE in presence of the molecule: AChE alone 3.6±0.012; for Random of AChE in presence of the molecule: AChE alone 44.2±0.46; for β sheets of AChE in presence of the molecule: AChE alone 52.3±0.6
T3 construct: purchased Sigma (St. Louis, MO, USA)
T3 sequence (O42275 24-633): as above
Procedure: Protein solutions 0.5 milligram per milliliter (mgml^-1) was prepared in 10 mM PBS at pH 7.7. Scans were performed at room temperature using 0.1 cm path length quartz cuvette with 8 s differential integration time at a scan rate of 100 nano meter per minute (nm min^-1). The CD spectrum of AChE enzyme individually and with different small molecules, also in combination was recorded. All spectra resulted from averaging three scans were corrected from the buffer blank. Results were expressed as molar ellipticity (°cm^2 dmol^-1) based on a mean amino acid residue weight (MRW) 110 Da for AChE. The molar ellipticity was determined as [θ obs] = {100 × (MRW) × θobs/cl}, where θ is the observed ellipticity in degrees at a given wavelength, c is the protein concentration in mgml^-1, and l is the path length in cm.
The relative percentages of the secondary structure elements were estimated in triplicates using Manager Suite software.

immobilized AChE [4] = biological target: T1, immobilized AChE; assay: biochemical; type: binding
Procedure: as §1, §2, §3, §4
Likewise, competitive experiments between different pairs was run by mixing 1:1 ratio of molecules and was fit to heterogeneous analyte model were studied. These experiments are helpful for determining the kinetics of a small molecule analyte in competition with other. Response contributions from both analytes are taken into account by considering molecular weight and concentrations of analytes. For competition binding experiments, pairing was done based on substrate-inhibitor and inhibitor-inhibitor interactions. […] Finally, naturally occurring crocin was also tested due to reports in the literature as a brain tonic for the Alzheimer's.

AChE [5] = biological target: T3, AChE; assay: Fluorescence spectral studies of AChE incubated with molecules; settings: excitation 365 nm, control emission maxima […] nm, molecules at IC50 concentration, 10 min
Procedure: The fluorescence intensities were recorded using 0.5 mgml^-1 protein concentration with an excitation wavelength of 365 nm and an emission wavelength of 400–700 nm with slit widths of 20 nm using MY14410002 fluorescence spectrophotometer (Agilent Technologies, USA) at 25°C. Protein solutions of 0.5 mgml^-1 were prepared in 10 mM PBS at pH 7.7. Scans were performed at room temperature using a 1 cm path length quartz cuvette with 1 s differential integration time at a scan rate of 600 nm min^-1. […] The subsequent changes in fluorescence were measured at this wavelength.
Fig 21 a) Intrinsic fluorescence spectra of the AChE incubated with molecules. […] Scans were performed at 37°C using a 1 cm path length quartz cuvette with 1 s differential integration time at a scan rate of 600 nm min^-1. The excitation wavelength was 365 nm and emission wavelength was in the range of 400–700 nm. b) Intrinsic fluorescence spectra of the AChE incubated with molecules. […] Scans were performed at 37° C using a 1 cm path length quartz cuvette with 1 s differential integration time at a scan rate of 600 nm min^-1. The excitation wavelength was 365 nm and the emission wavelength was in the range of 400–700 nm.

AChE [6] = settings: cited from earlier work
[7] = system: AChE activity of the central nervous tissue of L.acuminata; settings: 0.04 mM tannic acid; cited from earlier work
[8] = affinity fit, read-out: KD Affinity
[9] = two-state model, read-out: KD Kinetics
[10] = pair crocin (molecule 1) and ATCI (molecule 2), 1:1
[11] = pair tannic acid (molecule 1) and ATCI (molecule 2), 1:1

T1 sequence (O42275 24-633): as above

Compound	Ka2 (immobilized AChE [1])	Kd2 (immobilized AChE [1])	Kd (immobilized AChE [1]; [8])	Ka1 (immobilized AChE [1]; two-state model)	Kd1 (immobilized AChE [1]; two-state model)	Kd (immobilized AChE [1]; [9])	IC50 [2]	Turns of AChE in presence of the molecule (AChE [3])	α helix of AChE in presence of the molecule (AChE [3])	Random of AChE in presence of the molecule (AChE [3])	β sheets of AChE in presence of the molecule (AChE [3])	change in fluorescence emission of AChE compared to control enzyme (AChE [5])	other results
CC(/C=C/C=C(\C)C(=O)O[C@@H]1O[C@H](CO[C@@H]2O[C@H](CO)[C@@H](O)[C@H](O)[C@H]2O)[C@@H](O)[C@H](O)[C@H]1O)=C\C=C\C=C(C)\C=C\C=C(/C)C(=O)O[C@@H]1O[C@H](CO[C@@H]2O[C@H](CO)[C@@H](O)[C@H](O)[C@H]2O)[C@@H](O)[C@H](O)[C@H]1O [Crocin, crocin]	0.003559±9.4×10^−5 1/s	0.005325±1.5×10^−4 1/s	475 µM	601700 ± 6700 M⁻¹ s⁻¹	472 ± 5.2 s⁻¹	470 µM	920 ± 230 µM	0%	5.7±0.042%	43.8±0.41%	50.5±0.74%	redshift	Kd (immobilized AChE [4]): 6020 µM; Molecule 2 ka2 (immobilized AChE [4]): 1.010 ± 0.11 M⁻¹ s⁻¹; Molecule 2 kd2 (immobilized AChE [4]): 0.006083±1.1×10^−4 1/s; Molecule 1 ka1 (immobilized AChE [4]; [10]): 3281±5.8×10^2 1/Ms; Molecule 1 kd1 (immobilized AChE [4]; [10]): 0.01684±8.5×10^−4 1/s
Oc1cccc(O)c1O [Pyrogallol, pyrogallol]	0.01979±3.7×10^−4 1/s	0.002793±3.2×10^−5 1/s	119 µM	200.1 ± 3.3 M⁻¹ s⁻¹	0.05082 ± 0.0015 s⁻¹	31.4 µM	3800 ± 100 µM	0%	0%	49.2±0.68%	50.8±0.73%	quenching	IC50 (AChE [6]; read-out: IC50): 10.2 µM
C[C@@H]1O[C@@H](OC[C@H]2O[C@@H](Oc3c(-c4ccc(O)c(O)c4)oc4cc(O)cc(O)c4c3=O)[C@H](O)[C@@H](O)[C@@H]2O)[C@H](O)[C@H](O)[C@H]1O [Rutin hydrate, rutin hydrate]	0.004468±1.6×10^−4 1/s	0.002058±1.6×10^−4 1/s	1110 µM	11.33 ± 0.25 M⁻¹ s⁻¹	0.04254 ± 0.0013 s⁻¹	1180 µM	1900 ± 90 µM	0%	8.8±0.056%	40.7±0.27%	50.5±0.72%	redshift	
O.Oc1cc(O)c2c(c1)O[C@H](c1ccc(O)c(O)c1)[C@@H](O)C2 [catechin]													IC50 (AChE [6]; Catechin isolated from Dasiphora fruticosa, read-out: IC50): 1040 µM; IC50 (AChE [6]; catechin isolated from Eugenia dysenterica): 42.39 µg/mL
O=C(O[C@@H]1Cc2c(O)cc(O)cc2O[C@@H]1c1cc(O)c(O)c(O)c1)c1cc(O)c(O)c(O)c1 [epigallocatechin gallate]													IC50 (AChE [6]; literature value, no reference printed behind it, read-out: IC50): 16.8 µM
CC1=C(C=O)C(C)(C)CC=C1 [safranal]													concentration showing maximum inhibition of AChE (AChE [6]): 21.09 ± 0.17 µM
tannic acid	0.1039±2.2×10^−4 1/s		11.4 µM	1400 ± 47 M⁻¹ s⁻¹	0.03423 ± 0.017 s⁻¹			14.8±0.08%	5.1±0.039%	49.5±0.70%	30.6±0.19%	redshift	IC50 ([2]; […] ATCI, PBS 200 mM pH 7.7, 37°C, mean ± SEM (n = 3), read-out: IC50): 27 ± 2 µM; Molecule 1 ka1 (immobilized AChE [4]): 231.1 ± 3.3 M⁻¹ s⁻¹; Molecule 1 kd1 (immobilized AChE [4]): 2.685e-05 ± 2.9e-08 s⁻¹; Molecule 1 ka1 (immobilized AChE [4]; [11]): 1.687e-05 ± 3.7e+06 M⁻¹ s⁻¹; Molecule 1 kd1 (immobilized AChE [4]; [11]): 0.01266 ± 0.028 s⁻¹; Kd (immobilized AChE [4]; pair tannic acid (molecule 1) and ATCI (molecule 2), 1:1, read-out: Molecule 1 KD): 0.0751 µM; Kd (immobilized AChE [4]; read-out: Molecule 1 KD): 0.116 µM; reduced AChE activity [7]: 37%
